Assay results published in PubChem BioAssay (NCI).
Several values for one entry are separate records, joined by “and”; a condition that tells them apart may be missing. Equal values may be shown once.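 A five-concentration, 48-hour dose response in 96-well plates underlies each endpoint, interpolated linearly between surrounding concentrations. Abbreviation: GI50, concentration required for 50% inhibition of growth. TGI: total growth inhibition.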

Tests used:
Test in all cases: DTP human tumour cell line panel, 48 h
A549 NSCLC = system: A549 NSCLC
OVCAR-4 ovarian = system: OVCAR-4 ovarian
T-47D breast = system: T-47D breast
MDA-MB-435 = system: MDA-MB-435
SK-MEL-28 melanoma = system: SK-MEL-28 melanoma
UACC-62 melanoma = system: UACC-62 melanoma
MDA-N = system: MDA-N
CCRF-CEM leukemia = system: CCRF-CEM leukemia
SF-268 CNS = system: SF-268 CNS

Compound `Cc1c(-c2ccccc2)nn2cc(-c3ccccc3)nnc12` has a TGI (A549 NSCLC) of 52.5 µM, a TGI (OVCAR-4 ovarian) of over 100 µM and a TGI (T-47D breast) of over 100 µM. The TGI (MDA-MB-435) was over 100 µM, the TGI (SK-MEL-28 melanoma) was over 100 µM and the TGI (UACC-62 melanoma) was 92.3 µM. The TGI (MDA-N) was over 100 µM, the TGI (CCRF-CEM leukemia) was over 100 µM and the TGI (SF-268 CNS) was over 100 µM.

`CSc1c(C#N)c(N)nc2c(N=Nc3ccc(Br)cc3)c(N)nn12` showed a TGI (A549 NSCLC) of 25.1 µM, a TGI (OVCAR-4 ovarian) of 15.1 µM and a TGI (T-47D breast) of 4.74 µM. For the same compound, the TGI (MDA-MB-435) was 25 µM, the TGI (SK-MEL-28 melanoma) was 30.8 µM and the TGI (UACC-62 melanoma) was 19.4 µM. The TGI (MDA-N) was 18.8 µM, the TGI (CCRF-CEM leukemia) was 10.2 µM and the TGI (SF-268 CNS) was 13.2 µM.

`O=c1cc(NNc2cccc(F)c2)[nH]c(=O)[nH]1` showed a TGI (A549 NSCLC) of over 100 µM, a TGI (OVCAR-4 ovarian) of over 100 µM and a TGI (T-47D breast) of 31.7 µM. The TGI (SK-MEL-28 melanoma) was over 100 µM, the TGI (UACC-62 melanoma) was over 100 µM and the TGI (MDA-N) was over 100 µM. The TGI (CCRF-CEM leukemia) was 55.9 µM and the TGI (SF-268 CNS) was over 100 µM.

With `Fc1ccc(N=C/C=C/Nc2ccc(F)cc2)cc1` the TGI (A549 NSCLC) was 21.8 µM, the TGI (OVCAR-4 ovarian) was 29.8 µM and the TGI (T-47D breast) was 29.4 µM. It also gave a TGI (MDA-MB-435) of 20.8 µM, a TGI (SK-MEL-28 melanoma) of 22 µM and a TGI (UACC-62 melanoma) of 16.8 µM. For the same compound, the TGI (MDA-N) was 18.5 µM, the TGI (CCRF-CEM leukemia) was over 51.3 µM and the TGI (SF-268 CNS) was 27.5 µM.

In the case of `COc1cc(C2c3cc4c(cc3OC(Nc3ccccc3)C2C)OCO4)cc(OC)c1O` (stereo unspecified), the TGI (A549 NSCLC) was 19.2 µM, the TGI (OVCAR-4 ovarian) was 48.2 µM and the TGI (T-47D breast) was over 100 µM. For the same compound, the TGI (MDA-MB-435) was 1.95 µM, the TGI (SK-MEL-28 melanoma) was 28.4 µM and the TGI (UACC-62 melanoma) was 23 µM. The TGI (MDA-N) was 3.01 µM and the TGI (SF-268 CNS) was 39.4 µM.

`C(=Nc1ccc(-c2nc3ccccc3[nH]2)cc1)c1ccc[nH]1` showed a TGI (A549 NSCLC) of over 100 µM, a TGI (OVCAR-4 ovarian) of over 100 µM and a TGI (T-47D breast) of over 100 µM. It also gave a TGI (MDA-MB-435) of over 100 µM, a TGI (SK-MEL-28 melanoma) of over 100 µM and a TGI (UACC-62 melanoma) of over 100 µM. For the same compound, the TGI (MDA-N) was over 100 µM, the TGI (CCRF-CEM leukemia) was 85.1 µM and the TGI (SF-268 CNS) was over 100 µM.

`C=CC(OC(C)=O)c1ccc(OC(=O)C(C)C)c(OC)c1` (stereo unspecified) showed a TGI (A549 NSCLC) of 38.7 µM, a TGI (OVCAR-4 ovarian) of 16.2 µM and a TGI (T-47D breast) of 21.9 µM. For the same compound, the TGI (MDA-MB-435) was 15.6 µM, the TGI (SK-MEL-28 melanoma) was 28.8 µM and the TGI (UACC-62 melanoma) was 31.5 µM. For the same compound, the TGI (MDA-N) was 16.8 µM, the TGI (CCRF-CEM leukemia) was 5.03 µM and the TGI (SF-268 CNS) was 38.9 µM.

Work on `COc1ccc(-c2ccc(-c3ccc(C(=N)N)nc3)s2)cc1Cl` yielded a GI50 (OVCAR-4 ovarian) of 1740 nM, a TGI (OVCAR-4 ovarian) of 3.25 µM and a GI50 (MDA-MB-435) of 1.73 µM. For the same compound, the TGI (MDA-MB-435) was 3.12 µM.

Compound `CCCCCc1nnc(NS(=O)(=O)c2ccc(NC(=O)OCC(C)C)cc2)s1` has a TGI (A549 NSCLC) of over 100 µM, a TGI (OVCAR-4 ovarian) of 56.5 µM and a TGI (T-47D breast) of over 100 µM. The TGI (MDA-MB-435) was over 100 µM, the TGI (SK-MEL-28 melanoma) was 95.5 µM and the TGI (UACC-62 melanoma) was over 100 µM. It also gave a TGI (MDA-N) of over 100 µM, a TGI (CCRF-CEM leukemia) of 77.1 µM and a TGI (SF-268 CNS) of over 100 µM.

With `CN(CCO)CCCC1COc2ccccc2O1` (stereo unspecified) the TGI (A549 NSCLC) was over 100 µM, the TGI (OVCAR-4 ovarian) was over 100 µM and the TGI (SK-MEL-28 melanoma) was over 100 µM. The TGI (UACC-62 melanoma) was over 100 µM, the TGI (MDA-N) was over 100 µM and the TGI (CCRF-CEM leukemia) was over 100 µM. For the same compound, the TGI (SF-268 CNS) was 45.4 µM.

Compound `O=c1[nH]c2ccccc2c(O)c1/C=N/C(=S)NCc1ccccc1` has a TGI (A549 NSCLC) of over 100 µM, a TGI (T-47D breast) of over 100 µM and a TGI (MDA-MB-435) of over 100 µM. The TGI (SK-MEL-28 melanoma) was over 100 µM, the TGI (UACC-62 melanoma) was over 100 µM and the TGI (MDA-N) was over 100 µM.

`c1ccc(CN[C@]23C4C5CC6C7C5C2C7[C@@](NCc2ccccc2)(C64)N3Cc2ccccc2)cc1` (stereo partly specified) gave a TGI (A549 NSCLC) of over 100 µM, a TGI (OVCAR-4 ovarian) of over 100 µM and a TGI (T-47D breast) of over 100 µM. It also gave a TGI (MDA-MB-435) of over 100 µM, a TGI (SK-MEL-28 melanoma) of over 100 µM and a TGI (UACC-62 melanoma) of over 100 µM. It also gave a TGI (MDA-N) of over 100 µM, a TGI (CCRF-CEM leukemia) of over 100 µM and a TGI (SF-268 CNS) of over 100 µM.

`C/C(=C\c1ccccc1)C(=O)NCc1ccc(C(=O)NCCc2ccccc2)cc1` was tested, and the TGI (A549 NSCLC) was over 100 µM, the TGI (OVCAR-4 ovarian) was over 100 µM and the TGI (T-47D breast) was over 100 µM. For the same compound, the TGI (MDA-MB-435) was over 100 µM, the TGI (SK-MEL-28 melanoma) was over 100 µM and the TGI (UACC-62 melanoma) was over 100 µM. For the same compound, the TGI (MDA-N) was over 100 µM, the TGI (CCRF-CEM leukemia) was over 100 µM and the TGI (SF-268 CNS) was over 39.5 µM.

For `CCCCCCNC(=O)CCC(NC(=O)c1ccc(N(C)Cc2cnc3nc(N)nc(N)c3n2)cc1)C(=O)NCCCCCC` (stereo unspecified), the TGI (A549 NSCLC) was over 100 µM, the TGI (OVCAR-4 ovarian) was over 100 µM and the TGI (T-47D breast) was over 100 µM. For the same compound, the TGI (MDA-MB-435) was over 100 µM, the TGI (SK-MEL-28 melanoma) was over 100 µM and the TGI (UACC-62 melanoma) was over 100 µM. For the same compound, the TGI (MDA-N) was over 100 µM, the TGI (CCRF-CEM leukemia) was over 100 µM and the TGI (SF-268 CNS) was over 100 µM.

Work on `COc1cc([C@@H]2c3cc4c(cc3[C@@H](Nc3ccccc3C(=O)c3ccccc3)[C@H]3COC(=O)[C@H]23)OCO4)cc(OC)c1OC` yielded a TGI (A549 NSCLC) of over 100 µM, a TGI (OVCAR-4 ovarian) of over 100 µM and a TGI (T-47D breast) of over 100 µM. For the same compound, the TGI (MDA-MB-435) was 1.26 µM, the TGI (SK-MEL-28 melanoma) was over 100 µM and the TGI (CCRF-CEM leukemia) was over 100 µM. For the same compound, the TGI (SF-268 CNS) was over 100 µM.

In the case of `COC(=O)/C=C\C(C#N)(C#N)N=Cc1ccccc1`, the TGI (A549 NSCLC) was 34.3 µM, the TGI (OVCAR-4 ovarian) was 13.5 µM and the TGI (T-47D breast) was 3.88 µM. For the same compound, the TGI (MDA-MB-435) was 5.22 µM, the TGI (SK-MEL-28 melanoma) was 14.3 µM and the TGI (UACC-62 melanoma) was 28 µM. The TGI (MDA-N) was 15.1 µM, the TGI (CCRF-CEM leukemia) was 2.4 µM and the TGI (SF-268 CNS) was 11.4 µM.

For `CCOC(=O)C[n+]1cccc(C2(c3cc4ccccc4[nH]3)OCCO2)c1`, the TGI (A549 NSCLC) was over 100 µM, the TGI (OVCAR-4 ovarian) was over 100 µM and the TGI (T-47D breast) was over 100 µM. The TGI (MDA-MB-435) was over 100 µM, the TGI (SK-MEL-28 melanoma) was over 100 µM and the TGI (UACC-62 melanoma) was over 100 µM. For the same compound, the TGI (CCRF-CEM leukemia) was over 100 µM and the TGI (SF-268 CNS) was over 100 µM.

`COC1CC(OC2C(C)OC(OC3C(C)OC(OC4C(O)CC(O[C@H]5CC[C@@]6(C)C(=CC[C@]7(O)[C@@H]6C[C@@H](OC(C)=O)[C@@]6(C)[C@]7(O)CC[C@@]6(O)C(C)=O)C5)OC4C)CC3OC)CC2OC)OC(C)C1O` (stereo partly specified) showed a TGI (A549 NSCLC) of over 12.5 µM, a TGI (OVCAR-4 ovarian) of over 12.5 µM and a TGI (T-47D breast) of over 12.5 µM. The TGI (MDA-MB-435) was over 12.5 µM, the TGI (UACC-62 melanoma) was over 12.5 µM and the TGI (MDA-N) was over 12.5 µM. For the same compound, the TGI (CCRF-CEM leukemia) was over 12.5 µM and the TGI (SF-268 CNS) was over 12.5 µM.

`COc1cc2oc(=O)cc(C)c2cc1O` was tested, and the TGI (A549 NSCLC) was over 100 µM, the TGI (OVCAR-4 ovarian) was over 100 µM and the TGI (T-47D breast) was over 100 µM. It also gave a TGI (MDA-MB-435) of over 100 µM, a TGI (SK-MEL-28 melanoma) of over 100 µM and a TGI (MDA-N) of over 100 µM. It also gave a TGI (CCRF-CEM leukemia) of over 100 µM and a TGI (SF-268 CNS) of over 100 µM.

With `COc1ccc2c(c1)C/C(=C\c1cccc3ccccc13)C2=O` the TGI (A549 NSCLC) was over 100 µM, the TGI (OVCAR-4 ovarian) was over 100 µM and the TGI (SK-MEL-28 melanoma) was over 100 µM. For the same compound, the TGI (UACC-62 melanoma) was over 100 µM, the TGI (CCRF-CEM leukemia) was over 100 µM and the TGI (SF-268 CNS) was over 100 µM.

With `CCOC(=O)c1c(Br)c(-c2ccc(OC)cc2)c(Br)n1C` the TGI (A549 NSCLC) was 82.3 µM, the TGI (OVCAR-4 ovarian) was over 100 µM and the TGI (T-47D breast) was 82.1 µM. The GI50 (MDA-MB-435) was 4.47 µM, the TGI (MDA-MB-435) was 7.71 µM and 29.3 µM and the TGI (SK-MEL-28 melanoma) was over 100 µM. It also gave a GI50 (UACC-62 melanoma) of 13 µM, a TGI (UACC-62 melanoma) of 47.6 µM and a TGI (CCRF-CEM leukemia) of 40.2 µM. It also gave a TGI (SF-268 CNS) of over 100 µM.

For `O=[N+]([O-])c1ccc(C(Nc2ccccc2)P(c2ccccc2)c2ccccc2)cc1` (stereo unspecified), the TGI (A549 NSCLC) was over 100 µM, the TGI (OVCAR-4 ovarian) was over 100 µM and the TGI (T-47D breast) was over 100 µM. The TGI (MDA-MB-435) was over 100 µM, the TGI (SK-MEL-28 melanoma) was over 100 µM and the TGI (UACC-62 melanoma) was over 100 µM. It also gave a TGI (MDA-N) of over 100 µM and a TGI (SF-268 CNS) of over 100 µM.

In the case of `CC1(C)C(=O)c2ccccc2OC1N1CCN(C2Oc3ccccc3C(=O)C2(C)C)CC1` (stereo unspecified), the TGI (OVCAR-4 ovarian) was over 100 µM, the TGI (T-47D breast) was over 100 µM and the TGI (MDA-MB-435) was over 100 µM. For the same compound, the TGI (SK-MEL-28 melanoma) was over 100 µM, the TGI (UACC-62 melanoma) was over 100 µM and the TGI (MDA-N) was over 100 µM. The TGI (CCRF-CEM leukemia) was over 100 µM and the TGI (SF-268 CNS) was over 100 µM.
